{"source": "ChEMBL document CHEMBL5236603", "about": "“Discovery of mobocertinib, a potent, oral inhibitor of EGFR exon 20 insertion mutations in non-small cell lung cancer” (Bioorg Med Chem Lett, 2023)", "key": {"[1]": {"experiment": "Inhibition of mouse EGFR common activating deletion mutant stably expressed in mouse BaF3 cells assessed as cell viability incubated for 3 days by Cell Titer-Glo assay", "assay_type": "cell-based", "settings": "BaF3, 72 h"}, "[2]": {"target": "Epidermal growth factor receptor (Homo sapiens, UniProt P04626+P00533+Q15303+P21860, L858R)", "experiment": "Inhibition of mouse EGFR L858R mutant stably expressed in mouse BaF3 cells assessed as cell viability incubated for 3 days by Cell Titer-Glo assay", "assay_type": "cell-based"}, "[3]": {"target": "T1, Tyrosine-protein kinase ITK/TSK (Homo sapiens) (UniProt Q08881)", "T1 sequence (whole entry)": "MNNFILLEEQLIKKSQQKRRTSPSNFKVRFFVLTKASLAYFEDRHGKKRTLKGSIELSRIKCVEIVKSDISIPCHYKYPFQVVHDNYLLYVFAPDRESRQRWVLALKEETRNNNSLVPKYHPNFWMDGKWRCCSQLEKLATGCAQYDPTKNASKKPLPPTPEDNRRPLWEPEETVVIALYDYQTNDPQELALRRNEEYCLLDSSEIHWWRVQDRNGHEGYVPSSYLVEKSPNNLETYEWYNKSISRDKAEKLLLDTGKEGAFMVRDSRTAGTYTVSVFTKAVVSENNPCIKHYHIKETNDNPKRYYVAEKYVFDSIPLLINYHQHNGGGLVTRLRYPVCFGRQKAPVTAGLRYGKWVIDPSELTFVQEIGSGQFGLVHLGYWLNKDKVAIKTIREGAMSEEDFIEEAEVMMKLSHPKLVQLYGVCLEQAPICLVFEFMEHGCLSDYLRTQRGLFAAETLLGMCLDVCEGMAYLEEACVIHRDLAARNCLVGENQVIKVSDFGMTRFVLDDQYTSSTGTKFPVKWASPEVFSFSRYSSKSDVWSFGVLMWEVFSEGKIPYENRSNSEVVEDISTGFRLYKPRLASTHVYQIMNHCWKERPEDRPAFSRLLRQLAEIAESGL", "experiment": "Inhibition of human ITK at 1 uM by hotspot assay relative to control"}, "[4]": {"target": "T2, Cytoplasmic tyrosine-protein kinase BMX (Homo sapiens) (UniProt P51813)", "T2 sequence (whole entry)": "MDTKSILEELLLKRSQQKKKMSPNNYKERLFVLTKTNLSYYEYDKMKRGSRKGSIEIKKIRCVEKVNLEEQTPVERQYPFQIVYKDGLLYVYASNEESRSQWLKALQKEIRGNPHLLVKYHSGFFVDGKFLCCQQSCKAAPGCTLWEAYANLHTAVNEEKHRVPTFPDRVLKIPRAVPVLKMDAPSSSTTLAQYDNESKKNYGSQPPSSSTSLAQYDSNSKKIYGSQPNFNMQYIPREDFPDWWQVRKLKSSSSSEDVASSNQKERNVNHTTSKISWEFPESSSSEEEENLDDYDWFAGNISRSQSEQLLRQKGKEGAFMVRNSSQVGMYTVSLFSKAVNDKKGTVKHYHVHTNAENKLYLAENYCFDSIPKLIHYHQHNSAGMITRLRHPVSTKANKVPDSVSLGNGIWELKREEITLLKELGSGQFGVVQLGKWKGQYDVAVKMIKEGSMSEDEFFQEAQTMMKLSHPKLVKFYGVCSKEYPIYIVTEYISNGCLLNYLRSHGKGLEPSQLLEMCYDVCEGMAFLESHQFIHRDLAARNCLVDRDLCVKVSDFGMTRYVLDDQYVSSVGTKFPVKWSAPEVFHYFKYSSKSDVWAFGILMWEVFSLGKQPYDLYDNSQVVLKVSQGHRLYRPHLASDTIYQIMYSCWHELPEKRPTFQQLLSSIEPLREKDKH", "experiment": "Inhibition of human BMX at 1 uM by hotspot assay relative to control"}, "[5]": {"tested_on": "Tyrosine-protein kinase BTK (Homo sapiens), Q06187 [E41K]", "sequence (Q06187 whole entry E41K)": "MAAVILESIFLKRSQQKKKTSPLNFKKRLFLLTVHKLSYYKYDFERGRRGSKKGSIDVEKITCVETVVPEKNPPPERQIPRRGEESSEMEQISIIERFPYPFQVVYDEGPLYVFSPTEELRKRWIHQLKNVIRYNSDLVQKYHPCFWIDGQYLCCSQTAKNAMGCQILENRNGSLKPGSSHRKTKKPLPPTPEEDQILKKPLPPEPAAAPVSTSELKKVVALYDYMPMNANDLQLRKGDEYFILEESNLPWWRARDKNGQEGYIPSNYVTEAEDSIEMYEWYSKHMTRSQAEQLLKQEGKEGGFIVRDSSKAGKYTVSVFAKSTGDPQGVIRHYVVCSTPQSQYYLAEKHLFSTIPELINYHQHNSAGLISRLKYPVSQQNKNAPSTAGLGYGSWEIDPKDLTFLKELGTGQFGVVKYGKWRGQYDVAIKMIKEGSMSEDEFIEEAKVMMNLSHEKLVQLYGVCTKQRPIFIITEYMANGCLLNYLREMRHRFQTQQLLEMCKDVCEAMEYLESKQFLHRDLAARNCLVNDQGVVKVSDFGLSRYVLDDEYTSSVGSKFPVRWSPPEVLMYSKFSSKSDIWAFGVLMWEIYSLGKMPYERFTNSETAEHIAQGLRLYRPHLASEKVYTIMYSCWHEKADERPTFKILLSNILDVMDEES", "experiment": "Inhibition of human BTK E41K mutant at 1 uM by hotspot assay relative to control"}, "[6]": {"experiment": "Cmax in CD-1 rat at 10 mg/kg, po by LC/MS/MS analysis", "assay_type": "ADME, organism-based", "design": "dose 10 mg/kg, route po", "settings": "in vivo"}, "[7]": {"experiment": "AUClast in CD-1 mouse at 10 mg/kg, po by LC/MS/MS analysis", "assay_type": "ADME, organism-based", "design": "dose 10 mg/kg, route po", "settings": "in vivo"}, "[8]": {"experiment": "Inhibition of mouse EGFR A767_V769dup V769_D770insASV (ASV) mutant stably expressed in mouse BaF3 cells assessed as cell viability incubated for 3 days by Cell Titer-Glo assay", "assay_type": "cell-based", "settings": "BaF3, 72 h"}, "[9]": {"target": "Receptor tyrosine-protein kinase erbB-2 (Homo sapiens) (UniProt P04626)", "sequence (P04626 whole entry)": "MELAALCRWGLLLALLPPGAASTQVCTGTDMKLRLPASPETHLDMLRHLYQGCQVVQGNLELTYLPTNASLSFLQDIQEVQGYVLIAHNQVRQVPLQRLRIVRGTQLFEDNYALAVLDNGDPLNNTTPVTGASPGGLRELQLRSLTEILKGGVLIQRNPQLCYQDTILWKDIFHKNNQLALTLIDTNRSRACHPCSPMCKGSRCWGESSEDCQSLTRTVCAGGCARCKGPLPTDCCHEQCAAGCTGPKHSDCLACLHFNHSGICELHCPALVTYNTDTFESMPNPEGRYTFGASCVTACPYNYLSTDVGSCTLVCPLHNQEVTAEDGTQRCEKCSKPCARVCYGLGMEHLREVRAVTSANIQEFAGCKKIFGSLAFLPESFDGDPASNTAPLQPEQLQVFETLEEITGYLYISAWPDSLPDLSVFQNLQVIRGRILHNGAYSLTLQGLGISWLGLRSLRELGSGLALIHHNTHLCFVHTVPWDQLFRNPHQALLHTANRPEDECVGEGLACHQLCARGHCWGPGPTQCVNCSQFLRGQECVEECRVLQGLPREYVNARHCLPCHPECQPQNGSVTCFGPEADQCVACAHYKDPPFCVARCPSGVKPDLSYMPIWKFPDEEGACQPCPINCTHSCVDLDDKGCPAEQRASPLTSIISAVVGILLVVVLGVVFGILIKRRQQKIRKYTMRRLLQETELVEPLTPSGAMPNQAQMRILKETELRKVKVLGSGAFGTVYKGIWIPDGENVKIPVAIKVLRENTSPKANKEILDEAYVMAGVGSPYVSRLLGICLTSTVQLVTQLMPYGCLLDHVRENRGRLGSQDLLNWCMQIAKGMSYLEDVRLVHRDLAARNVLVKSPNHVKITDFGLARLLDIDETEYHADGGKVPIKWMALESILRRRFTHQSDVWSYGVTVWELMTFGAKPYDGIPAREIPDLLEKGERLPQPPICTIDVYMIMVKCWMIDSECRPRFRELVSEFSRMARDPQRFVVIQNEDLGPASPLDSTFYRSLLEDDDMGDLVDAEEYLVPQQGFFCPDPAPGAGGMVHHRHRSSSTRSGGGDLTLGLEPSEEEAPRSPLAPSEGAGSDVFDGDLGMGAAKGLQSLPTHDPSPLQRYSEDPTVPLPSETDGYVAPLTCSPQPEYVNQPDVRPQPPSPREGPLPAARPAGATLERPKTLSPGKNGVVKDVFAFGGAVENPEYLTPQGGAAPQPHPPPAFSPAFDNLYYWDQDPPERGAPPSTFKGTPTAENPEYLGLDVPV", "experiment": "Inhibition of human HER2 at 1 uM by hotspot assay relative to control"}, "[10]": {"experiment": "Inhibition of mouse EGFR S768_D770dup D770_N771insSVD (SVD) mutant stably expressed in mouse BaF3 cells assessed as cell viability incubated for 3 days by Cell Titer-Glo assay", "assay_type": "cell-based", "settings": "BaF3, 72 h"}, "[11]": {"tested_on": "BaF3", "experiment": "In vivo antitumor activity against mouse BaF3 cells expressing EGFR exon 20 insertion (ex20ins) ASV implanted in SCID mouse assessed as tumor growth inhibition at 100 mg/kg, po administered for 7 consecutive days", "assay_type": "functional", "settings": "BaF3, 168 h, time 7 day, read-out: TGI"}, "[12]": {"experiment": "Inhibition of mouse EGFR N771_H773dup H773_V774insNPH […] (NPH) mutant stably expressed in mouse BaF3 cells assessed as cell viability incubated for 3 days by Cell Titer-Glo assay", "assay_type": "cell-based", "settings": "BaF3, 72 h"}, "[13]": {"experiment": "Toxicity in SCID mouse assessed as signs of clinical toxicity at 100 mg/kg, po administered for 7 consecutive days", "assay_type": "organism-based", "settings": "in vivo"}, "[14]": {"target": "Epidermal growth factor receptor (Homo sapiens, UniProt P00533)", "sequence (P00533 whole entry)": "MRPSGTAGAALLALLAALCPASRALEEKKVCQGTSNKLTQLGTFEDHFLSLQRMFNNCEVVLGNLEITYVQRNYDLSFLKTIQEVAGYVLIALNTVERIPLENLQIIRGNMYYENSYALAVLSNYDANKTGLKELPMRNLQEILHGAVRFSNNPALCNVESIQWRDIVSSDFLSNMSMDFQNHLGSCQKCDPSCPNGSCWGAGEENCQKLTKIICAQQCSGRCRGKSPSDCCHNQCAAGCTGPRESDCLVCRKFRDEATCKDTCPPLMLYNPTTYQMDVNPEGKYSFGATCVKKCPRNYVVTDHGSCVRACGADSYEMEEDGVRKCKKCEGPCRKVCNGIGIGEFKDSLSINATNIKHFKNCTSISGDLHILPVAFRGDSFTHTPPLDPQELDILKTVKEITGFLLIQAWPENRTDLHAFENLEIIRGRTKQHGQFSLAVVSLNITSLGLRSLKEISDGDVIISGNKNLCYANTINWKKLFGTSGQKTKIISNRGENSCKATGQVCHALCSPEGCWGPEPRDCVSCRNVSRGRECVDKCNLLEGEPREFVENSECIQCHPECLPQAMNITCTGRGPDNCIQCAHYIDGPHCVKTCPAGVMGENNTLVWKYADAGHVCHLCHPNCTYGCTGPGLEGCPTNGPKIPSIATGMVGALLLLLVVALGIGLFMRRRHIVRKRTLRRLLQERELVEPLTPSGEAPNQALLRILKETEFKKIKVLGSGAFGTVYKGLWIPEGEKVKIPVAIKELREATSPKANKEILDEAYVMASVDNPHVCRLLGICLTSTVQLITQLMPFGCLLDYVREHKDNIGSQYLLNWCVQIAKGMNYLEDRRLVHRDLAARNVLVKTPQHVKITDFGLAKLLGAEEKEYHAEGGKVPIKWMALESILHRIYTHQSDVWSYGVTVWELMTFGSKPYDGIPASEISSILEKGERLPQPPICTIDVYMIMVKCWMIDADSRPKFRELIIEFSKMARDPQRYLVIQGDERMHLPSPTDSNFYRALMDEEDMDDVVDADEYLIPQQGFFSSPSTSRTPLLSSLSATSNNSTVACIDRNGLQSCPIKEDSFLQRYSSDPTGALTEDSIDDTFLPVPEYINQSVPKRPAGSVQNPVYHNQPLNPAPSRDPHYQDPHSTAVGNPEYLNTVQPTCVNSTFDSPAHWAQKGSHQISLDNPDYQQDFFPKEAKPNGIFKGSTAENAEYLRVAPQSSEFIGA", "experiment": "Inhibition of human EGFR at 1 uM by hotspot assay relative to control"}, "[15]": {"tested_on": "BaF3", "experiment": "In vivo antitumor activity against mouse BaF3 cells expressing EGFR exon 20 insertion (ex20ins) ASV implanted in SCID mouse assessed as tumor regression at 100 mg/kg, po administered for 7 consecutive days", "assay_type": "functional", "settings": "time 7 day"}, "[16]": {"experiment": "AUClast in CD-1 rat at 10 mg/kg, po by LC/MS/MS analysis", "assay_type": "ADME, organism-based", "design": "dose 10 mg/kg, route po", "settings": "in vivo"}, "[17]": {"tested_on": "BaF3", "experiment": "In vivo antitumor activity against mouse BaF3 cells expressing EGFR exon 20 insertion (ex20ins) ASV implanted in SCID mouse assessed as tumor growth inhibition at 30 mg/kg, po administered for 7 consecutive days", "assay_type": "functional", "settings": "BaF3, 168 h, time 7 day, read-out: TGI"}}, "note": "pIC50: −log10 of the molar value.", "data": [{"smiles": "C=CC(=O)Nc1cc(Nc2ncc(C(=O)OC(C)C)c(-c3cn(C)c4ccccc34)n2)c(OC)cc1N(C)CCN(C)C", "note": "[MOBOCERTINIB]", "values": [{"measurement": "pIC50", "setting": "[1]", "result": 8.57}, {"measurement": "IC50", "setting": "[2]", "result": 3.3, "unit": "nM"}, {"measurement": "inhibition", "setting": "[3]", "result": "> 81", "unit": "%"}, {"measurement": "inhibition", "setting": "[4]", "result": "> 81", "unit": "%"}, {"measurement": "inhibition", "setting": "[5]", "result": "> 81", "unit": "%"}, {"measurement": "Cmax", "setting": "[6]", "result": 143, "unit": "ng/mL"}, {"measurement": "AUC(0-t)", "setting": "[7]", "result": 341, "unit": "ng·h/mL"}, {"measurement": "pIC50", "setting": "[8]", "result": 7.96}, {"measurement": "inhibition", "setting": "[9]", "result": "> 97", "unit": "%"}, {"measurement": "pIC50", "setting": "[10]", "result": 7.65}, {"measurement": "inhibition in vivo at 100 mg/kg", "setting": "[11]", "result": 89, "unit": "%"}, {"measurement": "pIC50", "setting": "[12]", "result": 7.74}, {"measurement": "Activity", "setting": "[13]", "result": "Non-Toxic"}, {"measurement": "inhibition", "setting": "[14]", "result": "> 97", "unit": "%"}, {"measurement": "Activity", "setting": "[15]", "result": -98, "unit": "%"}, {"measurement": "AUC(0-t)", "setting": "[16]", "result": 1780, "unit": "ng·h/mL"}, {"measurement": "inhibition in vivo at 30 mg/kg", "setting": "[17]", "result": 77, "unit": "%"}]}]}
